Legend:
[1] = molecular target: T1, human M5 receptor (Homo sapiens, UniProt P08912); experiment: R-SAT assay M5; assay type: cell-based; conditions: Table 3, M5; percent response of reference Carbachol
T1 construct: expressed in transfected cells; host or cells: NIH/3T3 cells, transient transfection, pSI vector

[2] = molecular target: human D4 (variant 4.2) receptor (Homo sapiens, UniProt P21917, DEL265-296); assay type: cell-based
[3] = molecular target: D2 receptors (Homo sapiens, UniProt P14416); experiment: Dissociation rate of dopamine from D2 receptors (off-rate assay); assay type: binding; conditions: data not shown
Sequence of D2 receptors (P14416 1-414 isoform P14416-2): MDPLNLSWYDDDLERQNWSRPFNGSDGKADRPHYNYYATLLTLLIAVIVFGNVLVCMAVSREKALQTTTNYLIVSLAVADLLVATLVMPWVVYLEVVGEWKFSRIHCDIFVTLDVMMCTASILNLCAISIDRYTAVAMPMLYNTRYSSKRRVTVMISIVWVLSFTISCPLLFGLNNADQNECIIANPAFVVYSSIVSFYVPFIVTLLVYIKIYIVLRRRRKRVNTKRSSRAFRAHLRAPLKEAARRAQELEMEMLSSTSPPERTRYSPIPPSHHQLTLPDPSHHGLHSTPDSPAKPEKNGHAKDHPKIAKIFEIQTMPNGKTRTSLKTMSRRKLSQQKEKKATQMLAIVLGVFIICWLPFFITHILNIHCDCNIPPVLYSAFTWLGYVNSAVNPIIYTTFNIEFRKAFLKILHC

[4] = molecular target: T2, human D1 receptor (Homo sapiens, UniProt P21728); experiment: R-SAT assay D1; assay type: cell-based; conditions: Table 3, D1; percent response of reference SKF 38393
T2 construct: expressed in transfected cells; host or cells: NIH-3T3 (inferred: R-SAT host; D1 is in neither method list of b200)
T2 sequence (P21728 whole entry): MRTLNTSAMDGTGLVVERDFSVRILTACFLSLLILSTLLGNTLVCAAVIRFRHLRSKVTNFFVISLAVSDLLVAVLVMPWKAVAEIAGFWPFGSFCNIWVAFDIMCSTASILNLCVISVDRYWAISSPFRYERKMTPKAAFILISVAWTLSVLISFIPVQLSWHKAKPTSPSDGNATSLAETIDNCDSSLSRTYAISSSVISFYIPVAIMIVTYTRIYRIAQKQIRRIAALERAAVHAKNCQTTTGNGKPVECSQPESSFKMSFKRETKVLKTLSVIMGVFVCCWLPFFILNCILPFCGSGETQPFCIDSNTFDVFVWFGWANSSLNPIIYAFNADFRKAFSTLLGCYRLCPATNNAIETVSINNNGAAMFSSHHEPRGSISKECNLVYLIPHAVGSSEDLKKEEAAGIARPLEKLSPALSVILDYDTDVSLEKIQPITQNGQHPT

[5] = molecular target: human 5-HT6 receptor (Homo sapiens, UniProt P50406); experiment: R-SAT assay 5-HT6; assay type: cell-based; conditions: Table 3, 5-HT6
Sequence of human 5-HT6 receptor (P50406 whole entry): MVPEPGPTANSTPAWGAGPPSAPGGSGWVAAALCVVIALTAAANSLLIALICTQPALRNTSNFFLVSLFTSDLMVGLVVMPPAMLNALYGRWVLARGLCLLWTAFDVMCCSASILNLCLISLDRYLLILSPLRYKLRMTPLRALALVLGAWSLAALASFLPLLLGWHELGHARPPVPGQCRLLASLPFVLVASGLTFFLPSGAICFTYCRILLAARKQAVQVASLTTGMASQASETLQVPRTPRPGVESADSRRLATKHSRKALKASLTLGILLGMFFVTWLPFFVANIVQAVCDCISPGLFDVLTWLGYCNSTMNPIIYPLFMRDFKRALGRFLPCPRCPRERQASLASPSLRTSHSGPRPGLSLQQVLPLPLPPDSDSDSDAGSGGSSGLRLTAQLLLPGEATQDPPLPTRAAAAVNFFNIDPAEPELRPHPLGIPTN

Sequence of human D4 (variant 4.2) receptor (P21917 with tags, fused parts or gaps DEL265-296): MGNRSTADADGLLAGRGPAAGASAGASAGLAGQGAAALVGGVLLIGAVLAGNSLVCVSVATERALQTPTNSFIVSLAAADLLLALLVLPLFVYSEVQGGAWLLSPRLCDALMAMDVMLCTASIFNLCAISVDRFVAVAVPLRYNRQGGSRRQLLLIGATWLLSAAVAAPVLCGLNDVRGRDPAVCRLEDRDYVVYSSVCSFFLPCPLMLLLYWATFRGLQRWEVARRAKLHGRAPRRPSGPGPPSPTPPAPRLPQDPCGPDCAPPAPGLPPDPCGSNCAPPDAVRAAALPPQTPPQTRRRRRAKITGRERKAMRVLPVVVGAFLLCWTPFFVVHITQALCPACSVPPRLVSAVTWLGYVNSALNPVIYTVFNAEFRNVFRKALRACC
T1 sequence (P08912 whole entry): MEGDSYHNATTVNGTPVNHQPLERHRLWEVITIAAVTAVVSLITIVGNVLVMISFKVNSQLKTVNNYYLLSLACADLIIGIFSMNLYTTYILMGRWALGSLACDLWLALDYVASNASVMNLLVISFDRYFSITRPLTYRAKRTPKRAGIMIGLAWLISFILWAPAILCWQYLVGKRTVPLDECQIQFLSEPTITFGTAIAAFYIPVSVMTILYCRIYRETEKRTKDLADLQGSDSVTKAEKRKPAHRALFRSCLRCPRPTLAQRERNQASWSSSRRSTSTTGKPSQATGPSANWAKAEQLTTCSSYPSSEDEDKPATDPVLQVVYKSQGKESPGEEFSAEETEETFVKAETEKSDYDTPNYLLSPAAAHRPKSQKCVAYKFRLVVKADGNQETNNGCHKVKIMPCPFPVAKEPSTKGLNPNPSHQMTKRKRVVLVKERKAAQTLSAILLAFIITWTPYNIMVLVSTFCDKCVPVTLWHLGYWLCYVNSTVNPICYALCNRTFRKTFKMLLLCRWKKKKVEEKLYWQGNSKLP

For `CCCN1CCC[C@@H](c2cccc(S(C)(=O)=O)c2)C1` [(−)-OSU6162, (3S)-3-[3-(methylsulfonyl)phenyl]-1-propylpiperidine], the “Eff (%)” value [1] was −5%, the “Eff (%)” value [2] was 40% and the “effect on dissociation rate of dopamine from D2 receptors” value [3] was “did not significantly alter”. The “Eff (%)” value [4] was 11%, the EC50 ([5]; negative logarithm of EC50 in molar, read-out: pEC50 (converted)) was > 10 µM and the “Eff (%)” value ([5]; percent response of reference 5-CT) was 52%.

Reference: patent US20130197032A1, “[…] COMPOUNDS FOR THE TREATMENT OF NEUROLOGICAL AND […] DISORDERS” (A. CARLSSON RESEARCH AB, priority 2010, published 2013)
